The text below walks through data of publication PMC4426345 (ACS Infectious Diseases, 2014).

In brackets after ≈: the same amount, converted by molar mass.

The subject of assay [1] is M. tuberculosis H37Rv::pCHERRY3. In kind it is cell-based, Mycobacterium tuberculosis. The settings on record: OD and fluorescence readouts, 5 d, listed as Ambien, 1.
The subject of the next assay is replicating Mtb H37Rv. In kind it is cell-based. The settings on record: Mycobacterium tuberculosis, read-out: MIC in MABA.

As a reminder, the MIC is the smallest concentration in the dilution series that meets the test's criterion for growth inhibition. `Cc1ccc(-c2nc3ccc(C)cn3c2CC(=O)N(C)C)cc1` [Compound 1, N,N-dimethyl-2-(6-methyl-2-p-tolyl-imidazo[1,2-a]pyridin-3-yl)acetamide]: the “MIC Mtb H37Rv 7H9-Tw-OADC” value in assay [1] came to 10 µM (≈ 3.07 µg/mL). Further, the MIC in the assay on replicating Mtb H37Rv was 49 to 53 µM (≈ 15.1 to 16.3 µg/mL).
